In data set [1] the test system is inflammation induced by Freund's complete adjuvant. The experiment in a line: CFA-induced inflammation, paw volume by plethysmometer. The class given is in vivo, Male Wistar rats. Conditions: rat. The method, then:
(§1) The drugs were prepared fresh at the desired dose before administration. […] In the CFA-induced inflammation model, the rats were briefly anesthetized with isoflurane, via nose cone, titrated to the lowest dose necessary to achieve non-response to distal tail pinch. […] In both models, the paw volume was measured by a digital plethysmometer 7150 (Ugo Basile, Varese, Italy). To measure volume, the injected paw was marked around 1 cm above the tibiotarsal joint with an indelible pen. The paw was immersed up to the mark every time. […] In the […] studies, data were expressed as the average ± S.E.M. of 6 animals per experimental group. For the inflammation and hyperalgesia experiments, time courses of volume change (ΔV in μL) versus time (h) or paw withdrawal latency time (s) versus time (h) were generated, respectively. From the time courses, the area under the curve (AUC) was calculated using the trapezoidal rule as a measure of the duration and intensity of the effects observed with the different treatments. Then, AUC was employed to construct dose-response curves and to compare the different treatments.

Data set [2] deals with CFA-induced thermal hyperalgesia. The experiment in a line: CFA-induced thermal hyperalgesia, paw withdrawal latency. In kind it is in vivo, Male Wistar rats. Conditions: rat, single oral dose 100 mg/kg. The method, then:
(§2) CFA was administered at a concentration of 1 mg/mL and was previously dissolved in a mixture of paraffin oil (85%) and mannard monooleate (15%), whereas carrageenan was dissolved in an isotonic saline solution at 1%. The drugs were prepared fresh at the desired dose before administration.
(§3) The antihyperalgesic effect of the co-amorphous compound was evaluated using the thermal hyperalgesia model described by Dirig et al., with slight modifications. In this model, the rats were placed in acrylic observation chambers on a thin transparent glass plate maintained at a constant temperature of 30 °C. After a 30 min acclimatization period in the chambers, the animals received an intra-articular injection of 100 µL of CFA (1 mg/mL) or an intra-plantar injection of 50 µL of 1% carrageenan. Paw withdrawal latency to the thermal stimulus was measured before and 1, 2, 3, 4, 5 and 6 h after injection of CFA or carrageenan. To avoid tissue damage, a cutoff time of 20 s was used.
(§4) In the preclinic studies, data were expressed as the average ± S.E.M. of 6 animals per experimental group. […] From the time courses, the area under the curve (AUC) was calculated using the trapezoidal rule as a measure of the duration and intensity of the effects observed with the different treatments. […]

For data set [3], the system named is carrageenan-induced thermal hyperalgesia. The experiment in a line: Carrageenan-induced thermal hyperalgesia, paw withdrawal latency. In kind it is in vivo, Male Wistar rats. Conditions: rat, single oral dose 100 mg/kg. The method, then: as §2, §3, §4
Data set [4] deals with inflammation induced by carrageenan. The experiment in a line: Carrageenan-induced inflammation, paw volume by plethysmometer. In kind it is in vivo, Male Wistar rats. As to conditions: rat. The method, then: as §1
A short description of data set [5]: Solubility in phosphate buffer pH 6.8 at 37.5 °C (supersaturated, UV/Vis 420 nm). The class given is physicochemical. The method, then:
(§5) Then, 200 µL aliquots were taken for 1, 5, 10, 30 and 60 min. […] The solubility tests were performed in triplicate.

For data set [6] the following is noted: phosphate buffer at pH 7.2; cited from earlier work.
Data set [7] in a line: Solubility in distilled water at 37.5 °C (supersaturated, UV/Vis 420 nm). The class given is physicochemical. The method, then:
as §5

The mark [8] stands for this setting: oral 100–320 mg/kg, 1 h before CFA.
The mark [9] stands for this setting: oral 100–320 mg/kg, 1 h before carrageenan.
Setting [10] is: single oral dose 100 mg/kg (mixture: curcumin 51.4 mg/kg + L-arginine 48.6 mg/kg).

Values after ≈ are worked out from the molar mass of the structure shown.

Consider `N=C(N)NCCC[C@H](N)C(=O)O` [L-arginine], for which the “effect on CFA-induced inflammation (paw volume change, AUC)” value in data set [1] (setting [8]) is “failed to reverse the inflammatory effects”. Also, the “antihyperalgesic effect, CFA-induced thermal hyperalgesia (paw withdrawal latency)” value in data set [2] is given as “not curcumin or L-arginine, significantly increased the latency time”. Besides, the “antihyperalgesic effect, carrageenan-induced thermal hyperalgesia (paw withdrawal latency)” value in data set [3] is recorded as “antinociceptive effects that were statistically different from the vehicle group”. Moreover, the “effect on carrageenan-induced inflammation (paw volume change, AUC)” value in data set [4] (setting [9]) was “failed to reverse the inflammatory effects”.

Consider `COc1cc(/C=C/C(=O)CC(=O)/C=C/c2ccc(O)c(OC)c2)ccc1O` [curcumin], for which, in data set [1] (setting [8]), the “effect on CFA-induced inflammation (paw volume change, AUC)” value is “failed to reverse the inflammatory effects”. For the same compound, in data set [2], the “antihyperalgesic effect, CFA-induced thermal hyperalgesia (paw withdrawal latency)” value is “not curcumin or L-arginine, significantly increased the latency time”. In data set [5] (pH 6.8, after 60 min), this compound came in with a solubility at 60 min of 3.75 µg/mL (≈ 10.2 µM). Also, the solubility at 1 min in data set [5] (pH 6.8, aqueous buffer, thermodynamic from solid, after 1 min) stood at 1.36 µg/mL (≈ 3.69 µM); in data set [7] (distilled water, water, thermodynamic from solid, after 1 min) it was 0.03 µg/mL (≈ 0.0814 µM). In addition, the half-life in solution entry in data set [6] is “around 10 min”. Also, in data set [3], the “antihyperalgesic effect, carrageenan-induced thermal hyperalgesia (paw withdrawal latency)” value is “antinociceptive effects that were statistically different from the vehicle group”. Besides, the “effect on carrageenan-induced inflammation (paw volume change, AUC)” value in data set [4] (setting [9]) was “failed to reverse the inflammatory effects”. Further, in data set [7] (after 60 min), the “solubility in distilled water” value was found to be 0.43 µg/mL (≈ 1.17 µM).

In the case of `O=C(O)Cc1ccccc1Nc1c(Cl)cccc1Cl` [diclofenac], the “effect on CFA-induced inflammation (paw volume change, AUC)” value in data set [1] (setting [10]) is listed as “have anti-inflammatory effects”. Also, the “effect on carrageenan-induced inflammation (paw volume change, AUC)” value in data set [4] (setting [10]) was “have anti-inflammatory effects”.

(Values after publication PMC11768591 (Pharmaceutics, 2024).)
